Measured values: ChEMBL document CHEMBL3272121, “Hypolipidemic analogues of ethyl 4-benzyloxybenzoate” (J Med Chem, 1977)

Legend:
Rattus norvegicus [1] = test: Hypolipidemic activity in CFY Sprague-Dawley rat assessed as serum cholesterol level at 0.25% dietary level administered for 7 days relative to control; format: functional
Rattus norvegicus [2] = test: Hypolipidemic activity in CFY Sprague-Dawley rat assessed as serum triglyceride level at 0.25% dietary level administered for 7 days relative to control; format: functional
Rattus norvegicus [3] = test: Toxicity in CFY Sprague-Dawley rat assessed as body weight gain at 0.25% dietary level administered for 7 days relative to control; format: organism-based; conditions: in vivo, po, 168 h
Rattus norvegicus [4] = test: Toxicity in CFY Sprague-Dawley rat assessed as relative liver weight at 0.25% dietary level administered for 7 days relative to control; format: organism-based; conditions: in vivo, po, 168 h
Rattus norvegicus [5] = test: Hypolipidemic activity in CFY Sprague-Dawley rat assessed as liver lipid per gm of liver at 0.25% dietary level administered for 7 days relative to control; format: functional
Rattus norvegicus [6] = test: Hypolipidemic activity in CFY Sprague-Dawley rat assessed as serum cholesterol level at 0.1% dietary level administered for 7 days relative to control; format: functional
Rattus norvegicus [7] = test: Hypolipidemic activity in CFY Sprague-Dawley rat assessed as serum cholesterol level at 0.2% dietary level administered for 7 days relative to control; format: functional
Rattus norvegicus [8] = test: Hypolipidemic activity in CFY Sprague-Dawley rat assessed as serum cholesterol level at 0.5% dietary level administered for 7 days relative to control; format: functional
Rattus norvegicus [9] = test: Hypolipidemic activity in CFY Sprague-Dawley rat assessed as serum cholesterol level at 1% dietary level administered for 7 days relative to control; format: functional
Rattus norvegicus [10] = test: Hypolipidemic activity in CFY Sprague-Dawley rat assessed as serum triglyceride level at 0.1% dietary level administered for 7 days relative to control; format: functional
Rattus norvegicus [11] = test: Hypolipidemic activity in CFY Sprague-Dawley rat assessed as serum triglyceride level at 0.2% dietary level administered for 7 days relative to control; format: functional
Rattus norvegicus [12] = test: Hypolipidemic activity in CFY Sprague-Dawley rat assessed as serum triglyceride level at 0.5% dietary level administered for 7 days relative to control; format: functional
Rattus norvegicus [13] = test: Hypolipidemic activity in CFY Sprague-Dawley rat assessed as serum triglyceride level at 1% dietary level administered for 7 days relative to control; format: functional
Rattus norvegicus [14] = test: Toxicity in CFY Sprague-Dawley rat assessed as body weight gain at 0.1% dietary level administered for 7 days relative to control; format: organism-based; conditions: in vivo, po, 168 h
Rattus norvegicus [15] = test: Toxicity in CFY Sprague-Dawley rat assessed as body weight gain at 0.2% dietary level administered for 7 days relative to control; format: organism-based; conditions: in vivo, po, 168 h
Rattus norvegicus [16] = test: Toxicity in CFY Sprague-Dawley rat assessed as body weight gain at 0.5% dietary level administered for 7 days relative to control; format: organism-based; conditions: in vivo, po, 168 h
Rattus norvegicus [17] = test: Toxicity in CFY Sprague-Dawley rat assessed as body weight gain at 1% dietary level administered for 7 days relative to control; format: organism-based; conditions: in vivo, po, 168 h
Rattus norvegicus [18] = test: Toxicity in CFY Sprague-Dawley rat assessed as relative liver weight at 0.1% dietary level administered for 7 days relative to control; format: organism-based; conditions: in vivo, po, 168 h
Rattus norvegicus [19] = test: Toxicity in CFY Sprague-Dawley rat assessed as relative liver weight at 0.2% dietary level administered for 7 days relative to control; format: organism-based; conditions: in vivo, po, 168 h
Rattus norvegicus [20] = test: Toxicity in CFY Sprague-Dawley rat assessed as relative liver weight at 0.5% dietary level administered for 7 days relative to control; format: organism-based; conditions: in vivo, po, 168 h
Rattus norvegicus [21] = test: Toxicity in CFY Sprague-Dawley rat assessed as relative liver weight at 1% dietary level administered for 7 days relative to control; format: organism-based; conditions: in vivo, po, 168 h
Rattus norvegicus [22] = test: Hypolipidemic activity in CFY Sprague-Dawley rat assessed as liver lipid per gm of liver at 0.1% dietary level administered for 7 days relative to control; format: functional
Rattus norvegicus [23] = test: Hypolipidemic activity in CFY Sprague-Dawley rat assessed as liver lipid per gm of liver at 0.2% dietary level administered for 7 days relative to control; format: functional
Rattus norvegicus [24] = test: Hypolipidemic activity in CFY Sprague-Dawley rat assessed as liver lipid per gm of liver at 0.5% dietary level administered for 7 days relative to control; format: functional
Rattus norvegicus [25] = test: Hypolipidemic activity in CFY Sprague-Dawley rat assessed as liver lipid per gm of liver at 1% dietary level administered for 7 days relative to control; format: functional
Liver [26] = test: Inhibition of cholesterol biosynthesis from [1-14C]acetate in rat liver slices at […] relative to control; format: functional
Liver [27] = test: Inhibition of cholesterol biosynthesis from [1-14C]acetate in rat liver slices at 1 X 10^-4 M relative to control; format: functional
Liver [28] = test: Inhibition of fatty acid biosynthesis from [1-14C]acetate in rat liver slices at 5 X 10^-4 M relative to control; format: functional
Liver [29] = test: Inhibition of fatty acid biosynthesis from [1-14C]acetate in rat liver slices at 1 X 10^-4 M relative to control; format: functional
Liver [30] = test: Inhibition of cholesterol biosynthesis from [1-14C]acetate in rat liver slices at 1 X 10^-3 M relative to control; format: functional
Liver [31] = test: Inhibition of fatty acid biosynthesis from [1-14C]acetate in rat liver slices at 1 X 10^-3 M relative to control; format: functional

SMILES | Activity (Rattus norvegicus [1]) [%] | Activity (Rattus norvegicus [2]) [%] | Activity (Rattus norvegicus [3]) [%] | Activity (Rattus norvegicus [4]) [%] | Activity (Rattus norvegicus [5]) [%] | Activity (Rattus norvegicus [6]) [%] | Activity (Rattus norvegicus [8]) [%] | Activity (Rattus norvegicus [10]) [%] | Activity (Rattus norvegicus [12]) [%] | Activity (Rattus norvegicus [14]) [%] | Activity (Rattus norvegicus [16]) [%] | Activity (Rattus norvegicus [18]) [%] | Activity (Rattus norvegicus [20]) [%] | Activity (Rattus norvegicus [22]) [%] | Activity (Rattus norvegicus [24]) [%] | inhibition at 100 µM (Liver [27]) [%] | inhibition at 100 µM (Liver [29]) [%] | other results
CCOC(=O)c1ccc(OCc2ccccc2)cc1 | -17 | -61 | 1 | 8 | 2 | -9 | -18 | -14 | -41 | 6 | -40 | 9 | 22 | 0 | 10 | 42 | -7 | Activity (Rattus norvegicus [7]): -20%; Activity (Rattus norvegicus [9]): -20%; Activity (Rattus norvegicus [11]): -67%; Activity (Rattus norvegicus [13]): -29%; Activity (Rattus norvegicus [15]): -8%; Activity (Rattus norvegicus [17]): -45%; Activity (Rattus norvegicus [19]): 8%; Activity (Rattus norvegicus [21]): 37%; Activity (Rattus norvegicus [23]): -3%; Activity (Rattus norvegicus [25]): 9%; inhibition at 500 µM (Liver [26]): 68%; inhibition at 500 µM (Liver [28]): 91%
CCC(C(=O)O)c1ccccc1 (stereo not drawn) |  |  |  |  |  |  |  |  |  |  |  |  |  |  |  |  |  | inhibition at 1000 µM (Liver [30]): 30%; inhibition at 1000 µM (Liver [31]): 7%
CCOC(=O)CCc1ccc(OCc2ccc(F)cc2)cc1 | -20 | -43 | -1 | -5 | 7 |  | -19 |  | -59 |  | 4 |  | 15 |  | 8 | 87 | 82 | 
CCOC(=O)Cc1ccc(OCc2ccc(C)cc2)cc1 | -45 | -68 | -18 | 20 | 5 | -8 |  | -49 |  | 16 |  | 9 |  | 0 |  |  |  | 
